Columns and labels:
Experiment in all cases: MIC, broth microdilution (CLSI), substance alone or ATB combined with compound at 4 or 8 μg/mL
ABA 19606 = assay type: cell-based, A. baumannii; conditions: Acinetobacter baumannii, substance alone, read-out: MIC
Method: (§1) Compounds of the present invention were assessed against genotyped bacterial strains alone or in combination with an antibacterial. In the assays, MICs of said compounds or combination of antibiotics with fixed concentrations of said compounds (4 or 8 μg/mL) were determined by the broth microdilution method according to the Clinical Laboratory Standards Institute (CLSI-M7-A7). Briefly, compounds alone according to the invention were prepared in DMSO and spotted (2 μL each) on sterile polystyrene plates (Corning, 3788). Combinations of compounds and antibiotics dilutions were prepared in DMSO and spotted (1 μL each) on sterile polystyrene plates (Corning, 3788). Log phase bacterial suspensions were adjusted to a final density of 5·10^5 CFU/mL in cation-adjusted Mueller-Hinton broth (ca-MHB; Becton-Dickinson and Company) and added to each well (98 μL). Assays including Fosfomycin were supplemented with 25 μg/ml of Glucose-6-phosphate. Microplates were incubated for 16-20 h at 35° C. in ambient air. The MIC of the compounds was defined as the lowest concentration of said compounds that prevented bacterial growth as read by visual inspection. The MIC of ATB at each compound concentration was defined as the lowest concentration of ATB that prevented bacterial growth as read by visual inspection.

ABA UFR161 = assay type: cell-based, A. baumannii; conditions: Acinetobacter baumannii, substance alone, read-out: MIC
Method: as §1

ECL P99 = assay type: cell-based, E. cloacae; conditions: Enterobacter cloacae; substance alone; ECL P99; read-out: MIC
How it was run: (§2)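 Growth inhibition endpoint, read visually after 16-20 h at 35° C in ambient air. Cation-adjusted Mueller-Hinton broth, inoculum 5·10^5 CFU/mL, CLSI M7-A7 protocol.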

PAE UFR48 = assay type: cell-based, P. aeruginosa; conditions: PAE UFR48; for MIC ATB combined with compound: compound @4 μg/ml
How it was run: as §2

PAE 105250 = assay type: cell-based, P. aeruginosa; conditions: PAE 105250; for MIC ATB combined with compound: compound @4 μg/ml
How it was run: as §2

PAE UFR90 = assay type: cell-based, P. aeruginosa; conditions: PAE UFR90; for MIC ATB combined with compound: compound @4 μg/ml
How it was run: as §2

ECO UFR39 = assay type: cell-based, E. coli; conditions: Escherichia coli; substance alone; ECO UFR39; read-out: MIC
How it was run: as §2

ECO 190317 = assay type: cell-based, E. coli; conditions: Escherichia coli; substance alone; ECO 190317; read-out: MIC
How it was run: as §2

SPN 49619 = assay type: cell-based, S. pneumoniae; conditions: SPN 49619; for MIC ATB combined with compound: compound @4 μg/ml
How it was run: as §2

SAU 29213 = assay type: cell-based, S. aureus; conditions: for MIC ATB combined with compound: compound @4 μg/ml, SAU 29213
How it was run: as §2

KPN BAA-1898 = assay type: cell-based, K. pneumoniae; conditions: Klebsiella pneumoniae, BAA1898; substance alone; KPN BAA-1898; read-out: MIC
How it was run: as §2

KPN UFR42 = assay type: cell-based, K. pneumoniae; conditions: Klebsiella pneumoniae; substance alone; KPN UFR42; read-out: MIC
How it was run: as §2

[1] = Pseudomonas aeruginosa, substance alone, read-out: MIC

MIC (ABA 19606): 16 µg/mL
MIC (ABA UFR161): > 32 µg/mL
MIC (ECL P99): 16 µg/mL
MIC ATB combined with compound (PAE UFR48; ATB ATM): 8 µg/mL
MIC ATB combined with compound (PAE UFR48; ATB FEP): 32 µg/mL
MIC ATB combined with compound (PAE UFR48; ATB FOS): 16 µg/mL
MIC ATB combined with compound (PAE UFR48; ATB MEM): 4 µg/mL
MIC ATB combined with compound (PAE UFR48; ATB PIP): 128 µg/mL
MIC (PAE UFR48; [1]): 64 µg/mL
MIC ATB combined with compound (PAE 105250; ATB ATM): 8 µg/mL
MIC ATB combined with compound (PAE 105250; ATB FEP): 4 µg/mL
MIC ATB combined with compound (PAE 105250; ATB FOS): >128 µg/mL
MIC ATB combined with compound (PAE 105250; ATB MEM): 2 µg/mL
MIC ATB combined with compound (PAE 105250; ATB PIP): >32 µg/mL
MIC (PAE 105250; [1]): > 32 µg/mL
MIC ATB combined with compound (PAE UFR90; ATB ATM): 16 µg/mL
MIC ATB combined with compound (PAE UFR90; ATB FEP): 8 µg/mL
MIC ATB combined with compound (PAE UFR90; ATB FOS): 4 µg/mL
MIC ATB combined with compound (PAE UFR90; ATB MEM): 1 µg/mL
MIC ATB combined with compound (PAE UFR90; ATB PIP): >32 µg/mL
MIC (PAE UFR90; [1]): > 128 µg/mL
MIC (ECO UFR39): 4 µg/mL
MIC (ECO 190317): 4 µg/mL
MIC ATB combined with compound (SPN 49619; ATB ATM): >32 µg/mL
MIC ATB combined with compound (SPN 49619; ATB FEP): 0.063 µg/mL
MIC ATB combined with compound (SPN 49619; ATB FOS): 16 µg/mL
MIC ATB combined with compound (SPN 49619; ATB MEM): 0.063 µg/mL
MIC ATB combined with compound (SPN 49619; ATB PIP): 0.5 µg/mL
MIC (SPN 49619; Streptococcus pneumoniae, substance alone, read-out: MIC): > 32 µg/mL
MIC ATB combined with compound (SAU 29213; ATB ATM): >32 µg/mL
MIC ATB combined with compound (SAU 29213; ATB FEP): 4 µg/mL
MIC ATB combined with compound (SAU 29213; ATB FOS): 0.5 µg/mL
MIC ATB combined with compound (SAU 29213; ATB MEM): 0.125 µg/mL
MIC ATB combined with compound (SAU 29213; ATB PIP): 1 µg/mL
MIC (SAU 29213; Staphylococcus aureus, substance alone, SAU 29213 (MSSA 29213), read-out: MIC): > 32 µg/mL
MIC (KPN BAA-1898): > 32 µg/mL
MIC (KPN UFR42): > 32 µg/mL
SMILES: NCCON=C1C[C@@H](C(N)=O)N2C[C@@H]1N(OS(=O)(=O)[O-])C2=O.[Na+] [Example 2, sodium and 2,2,2-trifluoroacetate [(2S,5S)-4-(2-ammonium-ethoxyimino)-2-carbamoyl-7-oxo-1,6-diazabicyclo[3.2.1]octan-6-yl] sulfate]
